{"source": "patent US10428083B2", "about": "“Heterocyclylmethyl-thienouracile as antagonists of the adenosine-A2B-receptor” (BAYER PHARMA AKTIENGESELLSCHAFT, priority 2015, dated 2019)"}
{"molecular_target": "human adenosine A2b receptor (Homo sapiens (Human), UniProt P29275)", "sequence (P29275 whole entry)": "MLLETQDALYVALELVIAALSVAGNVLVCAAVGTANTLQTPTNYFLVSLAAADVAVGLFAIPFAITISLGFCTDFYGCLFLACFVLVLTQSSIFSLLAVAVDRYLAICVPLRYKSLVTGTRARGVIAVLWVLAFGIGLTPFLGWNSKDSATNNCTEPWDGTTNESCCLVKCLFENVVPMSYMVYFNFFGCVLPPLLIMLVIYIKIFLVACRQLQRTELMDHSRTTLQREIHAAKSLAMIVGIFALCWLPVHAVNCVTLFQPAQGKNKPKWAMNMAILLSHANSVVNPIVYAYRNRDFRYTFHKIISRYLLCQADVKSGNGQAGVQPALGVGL", "assay": "Cellular in vitro reporter gene test for A2b receptor activity (CHO-K1, CRE-luciferase, NECA stimulation)", "assay_type": "cell-based", "details": "recombinant CHO-K1 cell line, CRE-luciferase reporter, antagonism of EC50 concentration of NECA; in some cases means of several determinations, rounded to two significant figures; read-out: A2b receptor IC50", "method_in_brief": "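CHO-K1 cells with CRE-driven luciferase; antagonists co-incubated with NECA at its EC50, determined in a pre-experiment on each test day. Luciferase read by luminescence 3 h after NECA addition.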", "units": {"IC50": "nM"}}
{"compound": "CCOCCn1c(=O)n(CC)c(=O)c2c(C)c(CN3CCNC3=O)sc21", "note": "[Example 60, 1-(2-Ethoxyethyl)-3-ethyl-5-methyl-6-[(2-oxoimidazolidin-1-yl)methyl]thieno[2,3-d]pyrimidine-2,4(1H,3H)-dione]", "IC50": 13}
{"compound": "CCn1c(=O)c2c(C)c(CN3CCNC3=O)sc2n(CCOC(C)C)c1=O", "note": "[Example 61, 3-Ethyl-1-(2-isopropoxyethyl)-5-methyl-6-[(2-oxoimidazolidin-1-yl)methyl]thieno[2,3-d]pyrimidine-2,4(1H,3H)-dione]", "IC50": 53}
{"compound": "CCn1c(=O)c2c(C)c(CN3CCNC3=O)sc2n(CC2COC2)c1=O", "note": "[Example 72, 3-Ethyl-5-methyl-1-(oxetan-3-ylmethyl)-6-[(2-oxoimidazolidin-1-yl)methyl]thieno[2,3-d]pyrimidine-2,4(1H,3H)-dione]", "IC50": 8.1}
{"compound": "CCn1c(=O)c2c(C)c(CN3CCNC3=O)sc2n(C)c1=O", "note": "[Example 76, 3-Ethyl-1,5-dimethyl-6-[(2-oxoimidazolidin-1-yl)methyl]thieno[2,3-d]pyrimidine-2,4(1H,3H)-dione]", "IC50": 9.3}
{"compound": "CCCn1c(=O)n(CC)c(=O)c2c(C)c(CN3CCNC3=O)sc21", "note": "[Example 77, 3-Ethyl-5-methyl-6-[(2-oxoimidazolidin-1-yl)methyl]-1-propylthieno[2,3-d]pyrimidine-2,4(1H,3H)-dione]", "IC50": 5.6}
{"compound": "CCCCn1c(=O)n(CC)c(=O)c2c(C)c(CN3CCNC3=O)sc21", "note": "[Example 78, 1-Butyl-3-ethyl-5-methyl-6-[(2-oxoimidazolidin-1-yl)methyl]thieno[2,3-d]pyrimidine-2,4(1H,3H)-dione]", "IC50": 1.2}
{"compound": "CCn1c(=O)c2c(C)c(CN3CCNC3=O)sc2n(CCC(C)C)c1=O", "note": "[Example 79, 3-Ethyl-5-methyl-1-(3-methylbutyl)-6-[(2-oxoimidazolidin-1-yl)methyl]thieno[2,3-d]pyrimidine-2,4(1H,3H)-dione]", "IC50": 9.9}
{"compound": "CCn1c(=O)c2c(C)c(CN3CCNC3=O)sc2n(CC2CCC2)c1=O", "note": "[Example 80, 1-(Cyclobutylmethyl)-3-ethyl-5-methyl-6-[(2-oxoimidazolidin-1-yl)methyl]thieno[2,3-d]pyrimidine-2,4(1H,3H)-dione]", "IC50": 1.4}
{"compound": "CCn1c(=O)c2c(C)c(CN3CCNC3=O)sc2n(CC#N)c1=O", "note": "[Example 81, {3-Ethyl-5-methyl-2,4-dioxo-6-[(2-oxoimidazolidin-1-yl)methyl]-3,4-dihydrothieno[2,3-d]pyrimidin-1 (2H)-yl}acetonitrile]", "IC50": 14}
{"compound": "CCn1c(=O)c2c(C)c(CN3CCNC3=O)sc2n(Cc2nonc2C)c1=O", "note": "[Example 82, 3-Ethyl-5-methyl-1-[(4-methyl-1,2,5-oxadiazol-3-yl)methyl]-6-[(2-oxoimidazolidin-1-yl)methyl]thieno[2,3-d]pyrimidine-2,4(1H,3H)-dione]", "IC50": 17}
{"compound": "CCn1c(=O)c2c(C)c(CN3CCNC3=O)sc2n(CCN(C)C)c1=O", "note": "[Example 83, 1-[2-(Dimethylamino)ethyl]-3-ethyl-5-methyl-6-[(2-oxoimidazolidin-1-yl)methyl]thieno[2,3-d]pyrimidine-2,4(1H,3H)-dione]", "IC50": 380}
{"compound": "CCCn1c(=O)c2c(C)c(CN3CCNC3=O)sc2n(CCOC)c1=O", "note": "[Example 84, 1-(2-Methoxyethyl)-5-methyl-6-[(2-oxoimidazolidin-1-yl)methyl]-3-propylthieno[2,3-d]pyrimidine-2,4(1H,3H)-dione]", "IC50": 3.9}
{"compound": "C=CCn1c(=O)c2c(C)c(CN3CCNC3=O)sc2n(CCOC)c1=O", "note": "[Example 85, 3-Allyl-1-(2-methoxyethyl)-5-methyl-6-[(2-oxoimidazolidin-1-yl)methyl]thieno[2,3-d]pyrimidine-2,4(1H,3H)-dione]", "IC50": 18}
{"compound": "Cc1c(CN2CCNC2=O)sc2c1c(=O)n(CC(C)C)c(=O)n2CCC(F)(F)F", "note": "[Example 87, 3-Isobutyl-5-methyl-6-[(2-oxoimidazolidin-1-yl)methyl]-1-(3,3,3-trifluoropropyl)thieno[2,3-d]pyrimidine-2,4(1H,3H)-dione]", "IC50": 2.3}
{"compound": "Cc1c(CN2CCNC2=O)sc2c1c(=O)n(CC(C)C)c(=O)n2CCF", "note": "[Example 88, 1-(2-Fluoroethyl)-3-isobutyl-5-methyl-6-[(2-oxoimidazolidin-1-yl)methyl]thieno[2,3-d]pyrimidine-2,4(1H,3H)-dione]", "IC50": 6.7}
{"compound": "COCCn1c(=O)n(CC(C)C)c(=O)c2c(C)c(CN3CCNC3=O)sc21", "note": "[Example 89, 3-Isobutyl-1-(2-methoxyethyl)-5-methyl-6-[(2-oxoimidazolidin-1-yl)methyl]thieno[2,3-d]pyrimidine-2,4(1H,3H)-dione]", "IC50": 8.7}
{"compound": "Cc1c(CN2CCNC2=O)sc2c1c(=O)n(CC(C)C)c(=O)n2C", "note": "[Example 91, 3-Isobutyl-1,5-dimethyl-6-[(2-oxoimidazolidin-1-yl)methyl]thieno[2,3-d]pyrimidine-2,4(1H,3H)-dione]", "IC50": 11}
{"compound": "COCCn1c(=O)n(CC2CC2)c(=O)c2c(C)c(CN3CCNC3=O)sc21", "note": "[Example 92]", "IC50": 9.7}
{"compound": "Cc1c(CN2CCNC2=O)sc2c1c(=O)n(CC(F)(F)F)c(=O)n2CCCF", "note": "[Example 93, 1-(3-Fluoropropyl)-5-methyl-6-[(2-oxoimidazolidin-1-yl)methyl]-3-(2,2,2-trifluoroethyl)thieno[2,3-d]pyrimidine-2,4(1H,3H)-dione]", "IC50": 11}
{"compound": "COCCn1c(=O)n(CC(F)(F)F)c(=O)c2c(C)c(CN3CCNC3=O)sc21", "note": "[Example 94, 1-(2-Methoxyethyl)-5-methyl-6-[(2-oxoimidazolidin-1-yl)methyl]-3-(2,2,2-trifluoroethyl)thieno[2,3-d]pyrimidine-2,4(1H,3H)-dione]", "IC50": 7.7}
{"compound": "Cc1c(CN2CCNC2=O)sc2c1c(=O)n(CC(F)F)c(=O)n2CCCF", "note": "[Example 95, 3-(2,2-Difluoroethyl)-1-(3-fluoropropyl)-5-methyl-6-[(2-oxoimidazolidin-1-yl)methyl]thieno[2,3-d]pyrimidine-2,4(1H,3H)-dione]", "IC50": 11}
{"compound": "COCCn1c(=O)n(CC(F)F)c(=O)c2c(C)c(CN3CCNC3=O)sc21", "note": "[Example 96, 3-(2,2-Difluoroethyl)-1-(2-methoxyethyl)-5-methyl-6-[(2-oxoimidazolidin-1-yl)methyl]thieno[2,3-d]pyrimidine-2,4(1H,3H)-dione]", "IC50": 9.4}
{"compound": "COCCn1c(=O)n(CCF)c(=O)c2c(C)c(CN3CCNC3=O)sc21", "note": "[Example 97, 3-(2-Fluoroethyl)-1-(2-methoxyethyl)-5-methyl-6-[(2-oxoimidazolidin-1-yl)methyl]thieno[2,3-d]pyrimidine-2,4(1H,3H)-dione]", "IC50": 18}
{"compound": "COCCn1c(=O)n(CCC(F)(F)F)c(=O)c2c(C)c(CN3CCNC3=O)sc21", "note": "[Example 98, 1-(2-Methoxyethyl)-5-methyl-6-[(2-oxoimidazolidin-1-yl)methyl]-3-(3,3,3-trifluoropropyl)thieno[2,3-d]pyrimidine-2,4(1H,3H)-dione]", "IC50": 130}
{"compound": "CCn1c(=O)c2c(C(F)F)c(CN3CCNC3=O)sc2n(CCC(F)(F)F)c1=O", "note": "[Example 100, 5-(Difluoromethyl)-3-ethyl-6-[(2-oxoimidazolidin-1-yl)methyl]-1-(3,3,3-trifluoropropyl)thieno[2,3-d]pyrimidine-2,4(1H,3H)-dione]", "IC50": 6.8}
{"compound": "CCn1c(=O)c2c(C(F)F)c(CN3CCNC3=O)sc2n(CCOC)c1=O", "note": "[Example 101, 5-(Difluoromethyl)-3-ethyl-1-(2-methoxyethyl)-6-[(2-oxoimidazolidin-1-yl)methyl]thieno[2,3-d]pyrimidine-2,4(1H,3H)-dione]", "IC50": 12}
{"compound": "CCn1c(=O)c2c(C)c(CN3CCN(C)C3=O)sc2n(CCC(F)(F)F)c1=O", "note": "[Example 103, 3-Ethyl-5-methyl-6-[(3-methyl-2-oxoimidazolidin-1-yl)methyl]-1-(3,3,3-trifluoropropyl)thieno[2,3-d]pyrimidine-2,4(1H,3H)-dione]", "IC50": 3.5}
{"compound": "CCn1c(=O)c2c(C)c(CN3CCN(C(C)=O)C3=O)sc2n(CCOC)c1=O", "note": "[Example 104, 6-[(3-Acetyl-2-oxoimidazolidin-1-yl)methyl]-3-ethyl-1-(2-methoxyethyl)-5-methylthieno[2,3-d]pyrimidine-2,4(1H,3H)-dione]", "IC50": 120}
{"compound": "COCCn1c(=O)n(CCc2ccccc2)c(=O)c2c(C(F)(F)F)c(CN3CCN(C)C3=O)sc21", "note": "[Example 105, 1-(2-Methoxyethyl)-6-[(3-methyl-2-oxoimidazolidin-1-yl)methyl]-3-(2-phenylethyl)-5-(trifluoromethyl)thieno[2,3-d]pyrimidine-2,4(1H,3H)-dione]", "IC50": 14}
{"compound": "CCn1c(=O)c2c(C)c(CN3C(=O)CNC3=O)sc2n(CCOC(F)(F)F)c1=O", "note": "[Example 106, 6-[(2,5-Dioxoimidazolidin-1-yl)methyl]-3-ethyl-5-methyl-1-[2-(trifluoromethoxy)ethyl]thieno[2,3-d]pyrimidine-2,4(1H,3H)-dione]", "IC50": 9.2}
{"compound": "CCn1c(=O)c2c(C)c(CN3CCCNC3=O)sc2n(CCC(F)(F)F)c1=O", "note": "[Example 107, 3-Ethyl-5-methyl-6-[(2-oxotetrahydropyrimidin-1(2H)-yl)methyl]-1-(3,3,3-trifluoropropyl)thieno[2,3-d]pyrimidine-2,4(1H,3H)-dione]", "IC50": 11}
{"compound": "CCn1c(=O)c2c(C)c(CN3CCCN(C)C3=O)sc2n(CCC(F)(F)F)c1=O", "note": "[Example 108, 3-Ethyl-5-methyl-6-[(3-methyl-2-oxotetrahydropyrimidin-1(2H)-yl)methyl]-1-(3,3,3-trifluoropropyl)thieno[2,3-d]pyrimidine-2,4(1H,3H)-dione]", "IC50": 3.3}
{"compound": "C=CCn1cnn(Cc2sc3c(c2C)c(=O)n(CC)c(=O)n3CCC(F)(F)F)c1=O", "note": "[Example 110, 6-[(4-Allyl-5-oxo-4,5-dihydro-H-1,2,4-triazol-1-yl)methyl]-3-ethyl-5-methyl-1-(3,3,3-trifluoropropyl)thieno[2,3-d]pyrimidine-2,4(1H,3H)-dione]", "IC50": 79}
{"compound": "C=CCn1cnn(Cc2sc3c(c2C)c(=O)n(CC)c(=O)n3CCOC(F)(F)F)c1=O", "note": "[Example 111, 6-[(4-Allyl-5-oxo-4,5-dihydro-1H-1,2,4-triazol-1-yl)methyl]-3-ethyl-5-methyl-1-[2-(trifluoromethoxy)ethyl]thieno[2,3-d]pyrimidine-2,4(1H,3H)-dione]", "IC50": 21}
